Results on 32 compounds are retold here after patent US7217730B2, “Method for the use of pyranoindole derivatives to treat infection with Hepatitis C virus” (Wyeth, priority 2002, dated 2007).

The IC50 is the midpoint of a concentration-inhibition curve.

Assay [1] addresses T1, NS5B from the BK strain (genotype 1b) (Hepatitis C virus genotype 1b, UniProt P26663).
T1 construct: NS5B from the BK strain (genotype 1b) is expressed in E. coli as a protein in which the 21 C-terminal amino acids are replaced; made in house; host or cells: E. coli
The experiment in a line: Hepatitis C polymerase inhibition, NS5B BK strain, 33P-GTP filter assay. The assay is classed as biochemical. The following applies: Table 1B; NS5B BK strain; read-out: BK IC50. Summed up:
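Radiolabelled RNA synthesis was measured by filter capture and scintillation counting after EDTA stop. His-tagged, C-terminally truncated (Δ21) genotype 1b BK NS5B from E. coli, pre-exposed to compound for 15 min, copied a self-primed RNA template (~3 nM) with α-[33P]-GTP for 2 h at room temperature.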

Assay [2] has as its target BB7 (RNA-dependent RNA polymerase hepatitis C virus protein sequence derived from HCV replicon) (Hepatitis C virus genotype 1b, UniProt Q9WMX2). The experiment in a line: Hepatitis C polymerase inhibition, BB7 sequence. Format: biochemical. The following applies: Table 1B.

BB7 (RNA-dependent RNA polymerase hepatitis C virus protein sequence derived from HCV replicon), sequence (Q9WMX2 2420-3010): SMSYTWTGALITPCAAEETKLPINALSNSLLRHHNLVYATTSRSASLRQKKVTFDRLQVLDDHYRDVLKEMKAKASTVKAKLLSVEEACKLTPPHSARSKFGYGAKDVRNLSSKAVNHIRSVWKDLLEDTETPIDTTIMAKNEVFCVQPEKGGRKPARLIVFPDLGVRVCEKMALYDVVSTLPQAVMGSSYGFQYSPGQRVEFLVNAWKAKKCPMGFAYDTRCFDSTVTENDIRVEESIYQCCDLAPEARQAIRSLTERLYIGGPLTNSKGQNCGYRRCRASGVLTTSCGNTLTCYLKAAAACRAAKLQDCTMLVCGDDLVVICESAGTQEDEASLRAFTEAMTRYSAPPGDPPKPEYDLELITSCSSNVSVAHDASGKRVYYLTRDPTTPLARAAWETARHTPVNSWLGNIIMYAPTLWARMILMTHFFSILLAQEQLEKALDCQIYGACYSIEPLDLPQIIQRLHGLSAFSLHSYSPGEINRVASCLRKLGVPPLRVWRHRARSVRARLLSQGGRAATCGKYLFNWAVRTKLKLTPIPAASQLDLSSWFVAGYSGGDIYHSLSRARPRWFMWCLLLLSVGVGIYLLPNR
T1 sequence (P26663 2420-2989): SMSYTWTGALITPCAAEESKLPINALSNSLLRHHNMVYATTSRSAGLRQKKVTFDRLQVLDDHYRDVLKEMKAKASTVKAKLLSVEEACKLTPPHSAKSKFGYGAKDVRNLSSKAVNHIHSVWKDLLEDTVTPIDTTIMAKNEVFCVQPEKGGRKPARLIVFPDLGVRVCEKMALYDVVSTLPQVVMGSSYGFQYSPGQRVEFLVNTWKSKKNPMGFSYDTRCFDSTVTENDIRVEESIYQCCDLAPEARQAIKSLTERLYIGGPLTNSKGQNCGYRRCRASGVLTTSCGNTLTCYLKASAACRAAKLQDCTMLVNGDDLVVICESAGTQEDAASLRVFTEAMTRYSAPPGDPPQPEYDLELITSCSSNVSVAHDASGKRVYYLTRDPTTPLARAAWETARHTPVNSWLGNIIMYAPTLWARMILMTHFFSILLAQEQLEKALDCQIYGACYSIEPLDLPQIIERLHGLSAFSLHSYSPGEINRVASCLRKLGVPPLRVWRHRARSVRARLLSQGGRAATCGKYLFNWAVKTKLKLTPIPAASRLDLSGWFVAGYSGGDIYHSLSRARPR

For the compound `CC[C@@H](C)[C@@]1(CC(=O)O)OCCc2c1[nH]c1c(F)ccc(C#N)c21` (single isomer, unassigned) [Example 312, (1R*,10R*)-[5-cyano-8-fluoro-1-(1-methylpropyl)-1,3,4,9-tetrahydropyrano[3,4-b]indol-1-yl]acetic acid], the values for the IC50 in assay [1] and in assay [2] were 16000 nM and over 30000 nM, respectively.
The corresponding values for `N#CCCCC1(CC(=O)O)OCCc2c1[nH]c1c(Cl)ccc(Cl)c21` (stereo not shown) [Example 244, [5,8-dichloro-1-(3-cyanopropyl)-1,3,4,9-tetrahydropyrano[3,4-b]indol-1-yl)acetic acid] are 300 nM and 1800 nM.
For `CC[C@H](C)C1(CC(=O)O)OCCc2c1[nH]c1c(C)ccc(Cl)c21` (mixture of isomers) [Example 261, (1R*,10S)-[5-chloro-8-methyl-1-(1-methylpropyl)-1,3,4,9-tetrahydropyrano[3,4-b]indol-1-yl]acetic acid], the results for the IC50 in assay [1] and in assay [2] were 400 nM and 900 nM, respectively.
In the same order, the values of `N#Cc1ccc(F)c2[nH]c3c(c12)CCOC3(CC(=O)O)CC1CCCC1` (stereo not shown) [Example 310, (5-cyano-1-cyclopentylmethyl-8-fluoro-1,3,4,9-tetrahydropyrano[3,4-b]indol-1-yl)acetic acid] are over 25000 nM and over 25000 nM.
As for `CCCCC1(CC(=O)O)OCCc2c1[nH]c1c(CC)ccc(C#N)c21` (stereo not shown) [Example 296, (1-butyl-5-cyano-8-ethyl-1,3,4,9-tetrahydropyrano[3,4-b]indol-1-yl)acetic acid], the IC50 was 7200 nM in assay [1] and 6300 nM in assay [2].
Turning to `O=C(O)CC1(CC2CC2)OCCc2c1[nH]c1c(Cl)ccc(Cl)c21` (stereo not shown) [Example 257, (5,8-dichloro-1-cyclopropylmethyl-1,3,4,9-tetrahydropyrano[3,4-b]indol-1-yl)acetic acid], the IC50 in assay [1] amounted to 1900 nM; in assay [2] it was 2900 nM.
For `CCCC1(C(=O)O)OCCc2c1[nH]c1c(Cl)ccc(Cl)c21` (stereo not shown) [Example 329, (5,8-dichloro-1-propyl-1,3,4,9-tetrahydropyrano[3,4-b]indol-1-yl)carboxylic acid], the IC50 in assay [1] was 600 nM; in assay [2], 1500 nM.
`O=C(O)CC1(C2CCCC2)OCCc2c1[nH]c1ccc(Cl)c(Cl)c21` (stereo not shown) [Example 236, (5,6-dichloro-1-cyclopentyl-1,3,4,9-tetrahydropyrano[3,4-b]indol-1-yl)acetic acid]: the results for the IC50 in assay [1] and in assay [2] were 10000 nM and 9600 nM, respectively.
Take “(8-fluoro-5-nitro-1-propyl-1,3,4,9-tetrahydropyrano[3,4-b]indol-1-yl)carboxylic acid [Example 352]”: the values for the IC50 in assay [1] and in assay [2] were 900 nM and 2800 nM, respectively.
For `CCCC1(CC(=O)O)OCCc2c1[nH]c1c(C)ccc(Cl)c21` (stereo not shown) [Example 260, (5-chloro-8-methyl-1-propyl-1,3,4,9-tetrahydropyrano[3,4-b]indol-1-yl)acetic acid], the values for the IC50 in assay [1] and in assay [2] were 400 nM and 1200 nM, respectively.
The corresponding values for `COCCC1(CC(=O)O)OCCc2c1[nH]c1c(F)ccc(C#N)c21` (stereo not shown) [Example 304, [5-cyano-8-fluoro-1-(2-methoxyethyl)-1,3,4,9-tetrahydropyrano[3,4-b]indol-1-yl]acetic acid] are over 30000 nM and over 30000 nM.
With `COCCC1(CC(=O)O)OCCc2c1[nH]c1c(Cl)ccc(Cl)c21` (stereo not shown) [Example 247, [5,8-dichloro-1-(2-methoxyethyl)-1,3,4,9-tetrahydropyrano[3,4-b]indol-1-yl]acetic acid], the 50% inhibitory concentration (IC50) in assay [1] was over 24000 nM; in assay [2], 18000 nM.
In the case of `CCCC1(CC(=O)O)OCCc2c1[nH]c1c(C(C)C)ccc(C#N)c21` (stereo not shown) [Example 297, [5-cyano-8-(1-methylethyl)-1-propyl-1,3,4,9-tetrahydropyrano[3,4-b]indol-1-yl]acetic acid], the results for the 50% inhibitory concentration (IC50) in assay [1] and in assay [2] were 1800 nM and 2800 nM, respectively.
Regarding `COCCC1(CC(=O)O)OCCc2c1[nH]c1ccc(Cl)c(Cl)c21` (stereo not shown) [Example 238, [5,6-dichloro-1-(2-methoxyethyl)-1,3,4,9-tetrahydropyrano[3,4-b]indol-1-yl]acetic acid], the IC50 in assay [1] is 19000 nM; in assay [2], over 30000 nM.
In the same order, the values of `CC[C@@H](C)[C@@]1(C(=O)O)OCCc2c1[nH]c1c(C)ccc(C#N)c21` (racemic) [Example 336, (1R*,10R*)-[5-cyano-8-methyl-1-(1-methylpropyl)-1,3,4,9-tetrahydropyrano[3,4-b]indol-1-yl]carboxylic acid] are 4700 nM and 8700 nM.
Regarding `CCCC1(CC(=O)O)OCCc2c1[nH]c1c(Cl)ccc(C#N)c21` (stereo not shown) [Example 321, (8-chloro-5-cyano-1-propyl-1,3,4,9-tetrahydropyrano[3,4-b]indol-1-yl)acetic acid], the IC50 in assay [1] stood at 300 nM; in assay [2], 600 nM.
Take `CC[C@H](C)[C@@]1(CC(=O)O)OCCc2c1[nH]c1c(Cl)ccc(C#N)c21` [Example 325, (1R,10S)-[8-Chloro-5-cyano-1-(1-methylpropyl)-1,3,4,9-tetrahydropyrano[3,4-b]indol-1yl]acetic acid]: the half-maximal inhibitory concentration (IC50) in assay [1] was determined as 80 nM; in assay [2], 190 nM.
The corresponding values for `COCC1(CC(=O)O)OCCc2c1[nH]c1c(C)ccc(C#N)c21` (stereo not shown) [Example 281, (5-cyano-1-methoxymethyl-8-methyl-1,3,4,9-tetrahydropyrano[3,4-b]indol-1-yl)acetic acid] are over 30000 nM and over 30000 nM.
In the case of `Cc1ccc(C#N)c2c3c([nH]c12)C(CCC(F)(F)F)(CC(=O)O)OCC3` (stereo not shown) [Example 280, [5-cyano-8-methyl-1-(3,3,3-trifluoropropyl)-1,3,4,9-tetrahydropyrano[3,4-b]indol-1-yl]acetic acid], the IC50 in assay [1] is 800 nM; in assay [2], 2000 nM.
The corresponding values for `CC[C@H](C)[C@]1(CC(=O)O)OCCc2c1[nH]c1c(F)ccc(C#N)c21` [Example 316, (1S,10S)-[5-cyano-8-fluoro-1-(1-methylpropyl)-1,3,4,9-tetrahydropyrano[3,4-b]indol-1-yl]acetic acid] are over 30000 nM and over 30000 nM.
For `CCC(C)C1(CC(=O)O)OCCc2c1[nH]c1c(C)ccc(C#N)c21` (racemic) [Example 291, (1R*,10S)-[5-cyano-8-methyl-1-(1-methylpropyl)-1,3,4,9-tetrahydropyrano[3,4-b]indol-1-yl]acetic acid], the IC50 in assay [1] amounted to 230 nM; in assay [2], 500 nM.
For the compound `O=C(O)CC1(C2CC2)OCCc2c1[nH]c1c(Cl)ccc(Cl)c21` (stereo not shown) [Example 252, (5,8-dichloro-1-cyclopropyl-1,3,4,9-tetrahydropyrano[3,4-b]indol-1-yl)acetic acid], the results for the IC50 in assay [1] and in assay [2] were 7300 nM and 19000 nM, respectively.
As for “(5-cyano-7-ethoxy-8-methyl-1-propyl-1,3,4,9-tetrahydro-pyrano[3,4-b]indol-1-yl)-acetic acid [Example 362]”, the IC50 in assay [1] was determined as 110 nM; in assay [2], 70 nM.
For the compound `CCC1(CC(=O)O)OCCc2c1[nH]c1c(Cl)ccc(Cl)c21` (stereo not shown) [Example 243, (5,8-dichloro-1-ethyl-1,3,4,9-tetrahydropyrano[3,4-b]indol-1-yl)acetic acid], the IC50 was 6300 nM in assay [1] and 10000 nM in assay [2].
Regarding `Cc1ccc(C#N)c2c3c([nH]c12)[C@](CC(=O)O)(C1CCC1)OCC3` [Example 286, (1S)-(5-cyano-1-cyclobutyl-8-methyl-1,3,4,9-tetrahydropyrano[3,4-b]indol-1-yl)acetic acid], the IC50 in assay [1] and in assay [2] was over 30000 nM in each case.
In the case of `C=CCCC1(CC(=O)O)OCCc2c1[nH]c1c(Cl)ccc(Cl)c21` (stereo not shown) [Example 251, [5,8-dichloro-1-(3-butenyl)-1,3,4,9-tetrahydropyrano[3,4-b]indol-1-yl]acetic acid], the IC50 was 1700 nM in assay [1] and 3500 nM in assay [2].
With `CCCC1(C(=O)O)OCCc2c1[nH]c1c(C)ccc(C(F)(F)F)c21` (stereo not shown) [Example 333, (5-trifluoromethyl-8-methyl-1-propyl-1,3,4,9-tetrahydropyrano[3,4-b]indol-1-yl)carboxylic acid], the IC50 in assay [1] worked out at 1300 nM; in assay [2] it was 7600 nM.
In the case of `Cc1ccc(C(F)(F)F)c2c3c([nH]c12)C(CC(=O)O)(C1CC1)OCC3` (stereo not shown) [Example 274, (1-cyclopropyl-8-methyl-5-trifluoromethyl-1,3,4,9-tetrahydropyrano[3,4-b]indol-1-yl)acetic acid], the IC50 is 9300 nM in assay [1] and over 26000 nM in assay [2].
Turning to `O=C(O)CC1(C2CCCC2)OCCc2c1[nH]c1c(Cl)ccc(Cl)c21` (stereo not shown) [Example 254, (5,8-dichloro-1-cyclopentyl-1,3,4,9-tetrahydropyrano[3,4-b]indol-1-yl)acetic acid], the figures for the IC50 in assay [1] and in assay [2] were 3300 nM and 5800 nM, respectively.
For `CC[C@H](C)[C@@]1(CC(=O)O)OCCc2c1[nH]c1c(F)ccc(C#N)c21` [Example 315, (1R,10S)-[5-cyano-8-fluoro-1-(1-methylpropyl)-1,3,4,9-tetrahydropyrano[3,4-b]indol-1-yl]acetic acid], the half-inhibitory concentration (IC50) in assay [1] was 400 nM; in assay [2] it was 2100 nM.
As for `CCCC1(CC(=O)O)OCCc2c1[nH]c1c(C)c(OCCF)cc(C#N)c21` (stereo not shown) [Example 369, [5-cyano-7-(2-fluoro-ethoxy)-8-methyl-1-propyl-1,3,4,9-tetrahydro-pyrano[3,4-b]indol-1-yl]acetic acid], the IC50 turned out to be 4 nM in assay [1] and 10 nM in assay [2].
The corresponding values for `CCCC1(CC(=O)O)OCCc2c1[nH]c1c(C)c(C(=O)O)cc(C#N)c21` (stereo not shown) [Example 353, 1-carboxymethyl-5-cyano-8-methyl-1-propyl-1,3,4,9 tetrahydro-pyrano[3,4-b]indole-7-carboxylic acid] are 2000 nM and 810 nM.
